Experimental data reported in ChEMBL document CHEMBL1128577, “Synthesis and biological evaluation of novel 2,6-diaminobenz[cd]indole inhibitors of thymidylate synthase using the protein structure as a guide” (J Med Chem, 1995).

Assays:
GC3/MTK- = assay: Compound is screened for cell growth inhibition against GC3/MTK-cell line, a human thymidine kinase deficient adenocarcinoma line; type: functional, cell-based
Thymidylate synthase [1] = molecular target: Thymidylate synthase (Homo sapiens, UniProt P04818); assay: Inhibitory effect against recombinant human thymidylate synthase
Chain of Thymidylate synthase (Homo sapiens, UniProt P04818) (P04818 whole entry): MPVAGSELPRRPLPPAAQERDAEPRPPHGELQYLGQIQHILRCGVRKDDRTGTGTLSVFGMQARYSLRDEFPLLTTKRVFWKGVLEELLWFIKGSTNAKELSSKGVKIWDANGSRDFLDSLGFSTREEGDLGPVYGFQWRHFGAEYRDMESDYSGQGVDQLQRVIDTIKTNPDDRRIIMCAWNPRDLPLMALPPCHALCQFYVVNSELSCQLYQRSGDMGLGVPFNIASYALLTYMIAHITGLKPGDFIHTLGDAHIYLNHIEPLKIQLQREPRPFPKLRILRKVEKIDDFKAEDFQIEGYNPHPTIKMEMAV

CCRF-CEM = assay: Compound is screened for cell growth inhibition against CCRF-CEM cell line, a human lymphoblastic leukemia line of T-cell origin; type: functional, cell-based
L1210 = assay: Compound is screened for cell growth inhibition against L1210 murine leukemia tumor cell line; type: functional, cell-based; details: Mus musculus
[2] = Compound is evaluated for thymidine shift. […]; type: functional
Thymidylate synthase [3] = molecular target: Thymidylate synthase (Escherichia coli, UniProt C3SWJ7); assay: Inhibitory effect against Escherichia coli thymidylate synthase
Chain of Thymidylate synthase (Escherichia coli, UniProt C3SWJ7) (C3SWJ7 whole entry): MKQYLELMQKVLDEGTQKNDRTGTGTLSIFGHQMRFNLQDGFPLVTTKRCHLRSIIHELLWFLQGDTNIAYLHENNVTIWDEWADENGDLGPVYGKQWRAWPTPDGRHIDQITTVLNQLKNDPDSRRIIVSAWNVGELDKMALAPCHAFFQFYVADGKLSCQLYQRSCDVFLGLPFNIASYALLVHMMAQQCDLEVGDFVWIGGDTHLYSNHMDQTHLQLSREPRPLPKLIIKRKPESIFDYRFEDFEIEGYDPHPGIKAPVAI

| Compound | Ki (Thymidylate synthase [1]) [nM] | IC50 (CCRF-CEM) [nM] | IC50 (L1210) [nM] | Ki (Thymidylate synthase [3]) [nM] | IC50 (GC3/MTK-) [nM] | Thymidine shift [2] |
| --- | --- | --- | --- | --- | --- | --- |
| CNC1=Nc2ccc(N(C)Cc3ccncc3)c3c(C)ccc1c23 | 14 | 1100 | 210 |  | 3600 | 4.1 |
| CN(Cc1ccnnc1)c1ccc2c3c(cccc13)C(N)=N2 | 15 | 4000 | 900 | 18000 | 5000 | 7.7 |
| Cc1cc(CN(C)c2ccc3c4c(ccc(C)c24)C(N)=N3)ccn1 | 4 | 450 | 170 |  | 600 | 4.1 |
| CN(Cc1ccc(S(=O)(=O)N2CCOCC2)cc1)c1ccc2c3c(cccc13)C(N)=N2 [METESIND] | 15 |  |  | 5400 |  |  |
| CN(Cc1ccncc1)c1ccc2c3c(cccc13)C(N)=N2 | 17 | 2400 | 95 | 6600 | 4800 | 4.9 |
| CCc1cc(CN(C)c2ccc3c4c(cccc24)C(N)=N3)ccn1 | 25 | 3000 | 1000 |  | 6500 | 2.8 |
| Cc1ccc2c3c(ccc(N(C)Cc4ccnnc4)c13)N=C2N | 10 | 780 | 450 |  | 2100 | 12.1 |
| CN(Cc1ccnc(Sc2ccccc2)c1)c1ccc2c3c(cccc13)C(N)=N2 | 52 | 2000 | 660 |  | 11500 | 1.8 |
| CNC1=Nc2ccc(N(C)Cc3ccnnc3)c3c(C)ccc1c23 | 30 | 3700 | 800 |  | 9900 | 2.6 |
| CN(Cc1ccnc(C(F)(F)F)c1)c1ccc2c3c(cccc13)C(N)=N2 | 45 | 5900 | 2100 |  | 12000 | 4.2 |
| CN(Cc1ccc(S(=O)(=O)N2CCOCC2)cc1)c1ccc2c3c(cccc13)C(=N)N2 |  |  |  |  |  | 6.7 |

The next lines start with results.

| Ki (Thymidylate synthase [1]) [nM] | IC50 (CCRF-CEM) [nM] | IC50 (L1210) [nM] | Ki (Thymidylate synthase [3]) [nM] | Compound | IC50 (GC3/MTK-) [nM] | Thymidine shift [2] |
| --- | --- | --- | --- | --- | --- | --- |
| 14 | 2300 | 1600 | 1800 | Cc1cc(CN(C)c2ccc3c4c(cccc24)C(N)=N3)ccn1 | 7900 | 2.1 |
| 270 | 5100 | 1900 |  | CNC1=Nc2ccc(N(C)Cc3ccncc3)c3cccc1c23 | 23000 | 2.6 |
| 18 | 3000 | 1300 |  | CN(Cc1ccnc(CO)c1)c1ccc2c3c(cccc13)C(N)=N2 | 11000 | 6.9 |
| 6 | 440 | 160 | 600 | Cc1ccc2c3c(ccc(N(C)Cc4ccncc4)c13)N=C2N | 1100 | 2.3 |
| 310 | 9000 | 6900 |  | CNC1=Nc2ccc(N(C)Cc3ccnnc3)c3cccc1c23 | 26000 | 1.9 |
